The target in assay [1] is T1, human sphingosine-1-phosphate receptor 1 (S1P1) (Homo sapiens (Human), UniProt P21453). Kind of assay: Inhibition of cAMP production (HTRF cAMP HiRange), S1P1 CHO-K1 cells. The class given is cell-based. As to conditions: for Emax: CHO-K1, efficacy (SPAN) normalized to fingolimod, read-out: hS1P1 cAMP SPAN. The procedure, abridged:
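CHO-K1 cells stably co-expressing human S1P1 (C-terminal Prolink tag) and EA-β-arrestin2 were grown in AssayComplete Media 6 at 37° C. and 5% CO2, plated, and incubated overnight. Agonist-driven inhibition of intracellular cAMP was read by TR-FRET with the HTRF cAMP HiRange kit on a PheraStar reader. Potency is pEC50, and efficacy (SPAN) is normalized to fingolimod.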
Background: Changes in cAMP serve as a functional read-out for many G protein-coupled receptors.
Target sequence in this assay (P21453 whole entry, looked up): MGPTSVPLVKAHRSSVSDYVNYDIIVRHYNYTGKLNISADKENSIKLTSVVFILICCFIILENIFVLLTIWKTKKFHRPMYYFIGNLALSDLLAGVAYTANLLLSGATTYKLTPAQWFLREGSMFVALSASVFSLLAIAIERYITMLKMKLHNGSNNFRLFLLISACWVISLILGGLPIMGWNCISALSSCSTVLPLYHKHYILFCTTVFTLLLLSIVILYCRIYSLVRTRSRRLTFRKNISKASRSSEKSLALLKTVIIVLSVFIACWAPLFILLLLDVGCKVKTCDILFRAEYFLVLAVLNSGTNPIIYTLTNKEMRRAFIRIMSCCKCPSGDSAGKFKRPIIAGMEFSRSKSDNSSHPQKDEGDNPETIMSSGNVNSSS

Assay [2] has as its target T1, human sphingosine-1-phosphate receptor 1 (S1P1). The assay is described as follows: β-Arrestin2 recruitment assay (PathHunter), S1P1 CHO-K1 cells. The class given is cell-based. Conditions: for Emax: CHO-K1, efficacy (SPAN) normalized to fingolimod, read-out: hS1P1 B-arrestin2 SPAN. In outline:
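Enzyme-fragment complementation read-out: agonist-driven β-arrestin2 binding to ProLink-tagged human S1P1 in stable CHO-K1 cells restores β-galactosidase, measured 1 h at room temperature after a 60 min 37° C. compound incubation. Potency as pEC50, efficacy relative to fingolimod (SPAN).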
Target sequence in this assay (P21453 whole entry, looked up): as above
Target sequence in this assay (P32121 whole entry partner, looked up): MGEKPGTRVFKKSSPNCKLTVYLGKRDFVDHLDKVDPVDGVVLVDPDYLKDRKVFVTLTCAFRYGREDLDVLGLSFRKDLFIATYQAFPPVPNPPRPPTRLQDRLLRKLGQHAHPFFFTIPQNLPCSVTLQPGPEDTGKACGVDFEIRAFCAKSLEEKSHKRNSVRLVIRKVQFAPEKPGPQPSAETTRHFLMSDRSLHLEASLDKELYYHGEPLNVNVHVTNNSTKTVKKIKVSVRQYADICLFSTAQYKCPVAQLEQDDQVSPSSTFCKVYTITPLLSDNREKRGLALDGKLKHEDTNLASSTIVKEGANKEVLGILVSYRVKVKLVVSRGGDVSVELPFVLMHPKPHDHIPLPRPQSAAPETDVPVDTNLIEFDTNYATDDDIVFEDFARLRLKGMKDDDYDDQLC
On the technique in general: Recruitment of arrestin is a read-out of receptor activation apart from second messengers.

[3] abbreviates: inhibition of cAMP production, S1P1 CHO-K1 cells.
Setting [4] is: β-arrestin2 recruitment, S1P1 CHO-K1 cells.

Each structure is given as a SMILES string.

In the case of `Cc1cccc(C)c1-c1noc(-c2ccc3c(c2)nnn3C(C)C)n1` [Compound 243, 3-(2,6-dimethylphenyl)-5-(1-isopropyl-1H-benzo[d][1,2,3]triazol-5-yl)-1,2,4-oxadiazole], the Emax in assay [1] and in assay [2] was greater than 75% throughout. Moreover, the “hS1P1 cAMP pEC50” value in assay [1] (setting [3]) was less than 6.5. Also, the “hS1P1 B-arrestin2 pEC50” value in assay [2] (setting [4]) was less than 5.
For the compound `CC(C)n1nnc2cc(-c3nc(-c4ccncc4)no3)ccc21` [Compound 244, 1-(propan-2-yl)-5-[3-(pyridin-4-yl)-1,2,4-oxadiazol-5-yl]-1H-1,2,3-benzotriazole], the Emax in assay [1] and in assay [2] was greater than 75% in each case. Also, in assay [1] (setting [3]), the “hS1P1 cAMP pEC50” value is on record as greater than 6.5. Moreover, the “hS1P1 B-arrestin2 pEC50” value in assay [2] (setting [4]) is greater than 5.
On to `Cc1ccccc1-c1noc(-c2ccc3c(c2)nnn3C2CCCCC2)n1` [Compound 245, 1-cyclohexyl-5-[3-(2-methylphenyl)-1,2,4-oxadiazol-5-yl]-1H-1,2,3-benzotriazole], for which the Emax in assay [1] and in assay [2] was greater than 75% each time. Further, the “hS1P1 cAMP pEC50” value in assay [1] (setting [3]) is on record as less than 6.5. Further, the “hS1P1 B-arrestin2 pEC50” value in assay [2] (setting [4]) is recorded as greater than 5.
As to `CC(C)Oc1ccc(-c2nc(-c3ccc4c(c3)nnn4C(C)C)no2)cc1C(F)(F)F` [Compound 246, 5-(4-isopropoxy-3-(trifluoromethyl)phenyl)-3-(1-isopropyl-1H-benzo[d][1,2,3]triazol-5-yl)-1,2,4-oxadiazole], in assay [1] (setting [3]), the “hS1P1 cAMP pEC50” value is reported as greater than 6.5. The “hS1P1 B-arrestin2 pEC50” value in assay [2] (setting [4]) is recorded as greater than 5.
With `Cc1oc(-c2ccc3c(c2)nnn3C(C)C)nc1-c1ccccc1` [Compound 247, 5-(5-methyl-4-phenyl-1,3-oxazol-2-yl)-1-(propan-2-yl)-1H-1,2,3-benzotriazole], the Emax in assay [1] and in assay [2] was less than 75% throughout. Further, in assay [1] (setting [3]), the “hS1P1 cAMP pEC50” value is recorded as less than 6.5. The “hS1P1 B-arrestin2 pEC50” value in assay [2] (setting [4]) was less than 5.
For `CC(C)n1nnc2cc(-c3noc(-c4ccc(-c5ccccc5)cc4)n3)ccc21` [Compound 248, 5-([1,1′-biphenyl]-4-yl)-3-(1-isopropyl-1H-benzo[d][1,2,3]triazol-5-yl)-1,2,4-oxadiazole], the “hS1P1 cAMP pEC50” value in assay [1] (setting [3]) was less than 6.5. Moreover, the “hS1P1 B-arrestin2 pEC50” value in assay [2] (setting [4]) is recorded as less than 5.
Taken in the same sequence, the figures for `CC(C)n1nnc2cc(-c3nc(-c4cncnc4)no3)ccc21` [Compound 249, 1-(propan-2-yl)-5-[3-(pyrimidin-5-yl)-1,2,4-oxadiazol-5-yl]-1H-1,2,3-benzotriazole] were less than 6.5 and less than 5.
`COc1ccc(-c2coc(-c3ccc4c(c3)nnn4C(C)C)n2)cc1` [Compound 250, 5-[4-(4-methoxyphenyl)-1,3-oxazol-2-yl]-1-(propan-2-yl)-1H-1,2,3-benzotriazole]: the Emax in assay [1] and in assay [2] was less than 75% throughout. In addition, the “hS1P1 cAMP pEC50” value in assay [1] (setting [3]) is reported as less than 6.5. For the same compound, the “hS1P1 B-arrestin2 pEC50” value in assay [2] (setting [4]) is reported as less than 5.
Regarding `COc1cccc(OC)c1-c1noc(-c2ccc3c(c2)nnn3C(C)C)n1` [Compound 251, 3-(2,6-dimethoxyphenyl)-5-(1-isopropylbenzotriazol-5-yl)-1,2,4-oxadiazole], the Emax in assay [1] and in assay [2] was less than 75% throughout. Besides, the “hS1P1 cAMP pEC50” value in assay [1] (setting [3]) is less than 6.5. For the same compound, the “hS1P1 B-arrestin2 pEC50” value in assay [2] (setting [4]) is reported as less than 5.
In the case of `Cc1ccsc1-c1noc(-c2ccc3c(c2)nnn3C(C)(C)C)n1` [Compound 253, 1-tert-butyl-5-[3-(3-methylthiophen-2-yl)-1,2,4-oxadiazol-5-yl]-1H-1,2,3-benzotriazole], the Emax in assay [1] and in assay [2] was greater than 75% in each case. For the same compound, the EC50 in assay [1] (inhibition of cAMP production, S1P1 CHO-K1 cells, read-out: hS1P1 cAMP pEC50 (converted)) is less than 0.316 µM; in assay [2] (β-arrestin2 recruitment, S1P1 CHO-K1 cells, read-out: hS1P1 B-arrestin2 pEC50 (converted)) it was less than 10 µM.
In the case of `CC1(C)CCC2(CC1)CC(=O)c1cc(-c3nc(-c4ccncc4)no3)ccc1O2` [Compound 254, 4′,4′-dimethyl-6-[3-(pyridin-4-yl)-1,2,4-oxadiazol-5-yl]-3,4-dihydrospiro[1-benzopyran-2,1′-cyclohexane]-4-one], the Emax in assay [1] and in assay [2] was less than 75% throughout. For the same compound, the “hS1P1 cAMP pEC50” value in assay [1] (setting [3]) is greater than 6.5. Also, in assay [2] (setting [4]), the “hS1P1 B-arrestin2 pEC50” value is less than 5.
Consider `CC(C)n1nnc2cc(-c3noc(-c4ccc(F)cc4)n3)ccc21` [Compound 255, 5-(4-fluorophenyl)-3-(1-isopropylbenzotriazol-5-yl)-1,2,4-oxadiazole], for which the Emax in assay [1] and in assay [2] was less than 75% in each case. Besides, in assay [1] (setting [3]), the “hS1P1 cAMP pEC50” value is reported as less than 6.5. Further, the “hS1P1 B-arrestin2 pEC50” value in assay [2] (setting [4]) is listed as less than 5.
Regarding `CCC1(CC)CC(=O)c2cc(-c3nc(-c4ccc(N)cc4)no3)ccc2O1` [Compound 256, 6-(3-(4-aminophenyl)-1,2,4-oxadiazol-5-yl)-2,2-diethylchroman-4-one], the Emax in assay [1] and in assay [2] was greater than 75% each time. The “hS1P1 cAMP pEC50” value in assay [1] (setting [3]) was greater than 6.5. Moreover, in assay [2] (setting [4]), the “hS1P1 B-arrestin2 pEC50” value is given as greater than 5.
For `CCC1(CC)CC(=O)c2cc(-c3nc(-c4ccccc4OC)ns3)ccc2O1` [Compound 257, 2,2-diethyl-6-(3-(2-methoxyphenyl)-1,2,4-thiadiazol-5-yl)chroman-4-one], in assay [1] (setting [3]), the “hS1P1 cAMP pEC50” value was less than 6.5. For the same compound, in assay [2] (setting [4]), the “hS1P1 B-arrestin2 pEC50” value was less than 5.
On the same counts, the results for `CCC1(CC)CC(=O)c2cc(-c3nc(-c4cccnc4O)no3)ccc2O1` [Compound 258, 2,2-diethyl-6-(3-(2-hydroxypyridin-3-yl)-1,2,4-oxadiazol-5-yl)chroman-4-one] are less than 6.5 and less than 5.
`COc1cccc(F)c1-c1noc(-c2ccc3c(c2)nnn3C(C)C)n1` [Compound 260, 3-(2-fluoro-6-methoxy-phenyl)-5-(1-isopropylbenzotriazol-5-yl)-1,2,4-oxadiazole]: the Emax in assay [1] and in assay [2] was greater than 75% throughout. Further, the “hS1P1 cAMP pEC50” value in assay [1] (setting [3]) is given as less than 6.5. Also, the “hS1P1 B-arrestin2 pEC50” value in assay [2] (setting [4]) is less than 5.
`CCC1(CC)CC(=O)c2cc(-c3nc(-c4cccc(Cl)c4)no3)ccc2O1` [Compound 261, 6-[3-(3-chlorophenyl)-1,2,4-oxadiazol-5-yl]-2,2-diethyl-chroman-4-one]: in assay [1] (setting [3]), the “hS1P1 cAMP pEC50” value is recorded as less than 6.5. Moreover, the “hS1P1 B-arrestin2 pEC50” value in assay [2] (setting [4]) is greater than 5.
`Cc1ccncc1-c1noc(-c2ccc3nnn(C(C)C)c3c2)n1` [Compound 264, 6-[3-(4-methylpyridin-3-yl)-1,2,4-oxadiazol-5-yl]-1-(propan-2-yl)-1H-1,2,3-benzotriazole]: the Emax in assay [1] and in assay [2] was less than 75% in each case. Further, in assay [1] (setting [3]), the “hS1P1 cAMP pEC50” value is less than 6.5. In addition, the “hS1P1 B-arrestin2 pEC50” value in assay [2] (setting [4]) is reported as less than 5.
Take `CCC1(CC)CC(=O)c2cc(-c3nc(-c4sccc4C)no3)ccc2O1` [Compound 265, 2,2-diethyl-6-(3-(3-methylthiophen-2-yl)-1,2,4-oxadiazol-5-yl)chroman-4-one]: the figures for the Emax in assay [1] and in assay [2] were greater than 75% and less than 75%, respectively. The “hS1P1 cAMP pEC50” value in assay [1] (setting [3]) is greater than 6.5. In addition, the “hS1P1 B-arrestin2 pEC50” value in assay [2] (setting [4]) is recorded as greater than 5.
With `CCC1(CC)CC(=O)c2cc(-c3nc(-c4ccc(S(=O)(=O)NC)cc4)no3)ccc2O1` [Compound 266, 4-(5-(2,2-diethyl-4-oxochroman-6-yl)-1,2,4-oxadiazol-3-yl)-N-methylbenzenesulfonamide], in assay [1] (setting [3]), the “hS1P1 cAMP pEC50” value is given as less than 6.5. The “hS1P1 B-arrestin2 pEC50” value in assay [2] (setting [4]) was greater than 5.
As to `CCC1(CC)CC(=O)c2cc(-c3nc(-c4ccccc4OC)no3)ccc2O1` [Compound 268, 2,2-diethyl-6-[3-(2-methoxyphenyl)-1,2,4-oxadiazol-5-yl]chroman-4-one], the “hS1P1 cAMP pEC50” value in assay [1] (setting [3]) is given as greater than 6.5. Further, in assay [2] (setting [4]), the “hS1P1 B-arrestin2 pEC50” value is given as greater than 5.
Consider `CCC1(CC)CC(=O)c2cc(-c3nc(-c4ccc(C)cc4)no3)ccc2O1` [Compound 269, 2,2-diethyl-6-[3-(p-tolyl)-1,2,4-oxadiazol-5-yl]chroman-4-one], for which the Emax in assay [1] and in assay [2] was less than 75% each time. In assay [1] (setting [3]), the “hS1P1 cAMP pEC50” value is listed as less than 6.5. For the same compound, in assay [2] (setting [4]), the “hS1P1 B-arrestin2 pEC50” value was less than 5.
Consider `C=CCn1nnc2cc(-c3nc(-c4ccccc4)no3)ccc21` [Compound 270, 5-(3-phenyl-1,2,4-oxadiazol-5-yl)-1-(prop-2-en-1-yl)-1H-1,2,3-benzotriazole], for which, in assay [1] (setting [3]), the “hS1P1 cAMP pEC50” value is given as less than 6.5. The “hS1P1 B-arrestin2 pEC50” value in assay [2] (setting [4]) was less than 5.
Turning to `CC(C)CCn1nnc2cc(-c3nc(-c4ccccc4)no3)ccc21` [Compound 271, 1-(3-methylbutyl)-5-(3-phenyl-1,2,4-oxadiazol-5-yl)-1H-1,2,3-benzotriazole], the Emax in assay [1] and in assay [2] was less than 75% each time. Besides, the “hS1P1 cAMP pEC50” value in assay [1] (setting [3]) is less than 6.5. Besides, the “hS1P1 B-arrestin2 pEC50” value in assay [2] (setting [4]) is reported as less than 5.
In the case of `COc1cncc(-c2nc(-c3ccc4c(c3)nnn4C(C)C)no2)c1` [Compound 272, 3-(1-isopropyl-1H-benzo[d][1,2,3]triazol-5-yl)-5-(5-methoxypyridin-3-yl)-1,2,4-oxadiazole], the Emax in assay [1] and in assay [2] was less than 75% throughout. Further, the “hS1P1 cAMP pEC50” value in assay [1] (setting [3]) was less than 6.5. The “hS1P1 B-arrestin2 pEC50” value in assay [2] (setting [4]) is given as less than 5.
As for `Cc1cccc(-c2nc(-c3ccc4c(c3)nnn4C3CCCC3)no2)c1` [Compound 273, 3-(1-cyclopentyl-1H-benzo[d][1,2,3]triazol-5-yl)-5-(m-tolyl)-1,2,4-oxadiazole], the “hS1P1 cAMP pEC50” value in assay [1] (setting [3]) is on record as less than 6.5. Besides, the “hS1P1 B-arrestin2 pEC50” value in assay [2] (setting [4]) is less than 5.

The record behind these values is patent US11912693B2, “Compounds for modulating S1P1 activity and methods of using the same” (TREVENA, INC., priority 2017, dated 2024).
